{"source": "patent US20050043300A1", "about": "“Piperazine derivatives” (priority 2003, published 2005)", "note": "pIC50: −log10 of the molar value.", "data": [{"target": "interaction of gp120 with CD4 (Human immunodeficiency virus type 1 group M subtype B, UniProt P04578)", "assay": "gp120/soluble CD4 enzyme linked immunosorbent assay (ELISA)", "type": "binding", "conditions": "soluble CD4 conjugated to horseradish peroxidase, absorbance at 492 nm, read-out: IC50, inhibition of interaction of gp120 with soluble CD4", "method": "Maxisorp plates (Nunc) are coated with 2 μg/well of anti-gp120 antibody (D7324). 100 μl of gp120 (dilution pre-determined by titration) is added to each well and incubated for 90 minutes at room temperature. The sample is removed and the wells are washed with PBS (phosphate buffered saline)+0.01% TWEEN® (polyethylene glycol sorbitan monolaurate). 50 μl/well of compound is added followed by 50 μl (0.1 μg) of soluble CD4 conjugated to horseradish peroxidase (Autogen Bioclear). The plate is incubated for 90 minutes at room temperature before the wells are washed again. The substrate OPD (o-phenylenediamine, Sigma) is added at a concentration of 0.5 mg/ml and the plate incubated in the dark at room temperature for 3 minutes before 3M HCl is added to stop the reaction. Compounds that inhibit the interaction of gp120 with soluble CD4 will give rise to a reduced absorbance at 492 nm.", "values": [{"smiles": "CNC(=O)c1ccc(O[C@@H](C)C(=O)N2CCN(C(=O)c3ccccc3)C[C@H]2C)c(OC)c1", "note": "[Example 11]", "pIC50": 6.00}, {"smiles": "Cc1n[nH]c2cccc(O[C@@H](C)C(=O)N3CCN(C(=O)c4ccccc4)C[C@H]3C)c12", "note": "[Example 12]", "pIC50": 6.12}, {"smiles": "C[C@H](Oc1cccc2ncccc12)C(=O)N1CCN(C(=O)c2ccccc2)C[C@H]1C", "note": "[Example 1, (2S)-1-[(2R)-4-Benzoyl-2-methyl-piperazin-1-yl]-2-(quinolin-5-yloxy)-prooan-1-one]", "pIC50": 6.04}]}, {"system": "HIV-1 fusion", "assay": "gp160 induced cell-cell fusion assay (HeLa P4 / CHO-Tat10 cells, β-galactosidase reporter)", "type": "cell-based", "conditions": "Human immunodeficiency virus 1, HeLaP4, read-out: IC50 against HIV-1 fusion", "method": "The gp160 induced cell-cell fusion assay uses a HeLa P4 cell line and a CHO-Tat10 cell line.\nThe HeLa P4 cell line expresses CCR5 and CD4 and has been transfected with HIV-1 LTR-β-Galactosidase. The media for this cell line is Dulbecco modified eagle's medium (D-MEM) (without L-glutamine) containing 10% foetal calf serum (FCS), 2 mM L-glutamine penicillin/streptomycin (Pen/Strep; 100 U/mL penicillin+[…] streptomycin), and 1 μg/ml puromycin.\nThe CHO cell line is a Tat (transcriptional trans activator)-expressing clone from a CHO JRR17.1 cell line that has been transfected with pTat puro plasmid. The media for this cell line is rich medium for mammalian cell culture originally developed at Roswell Park Memorial Institute RPMI1640 (without L-glutamine) containing 10% FCS, 2 mM L-glutamine, 0.5 mg/ml Hygromycin B and 12 μg/ml puromycin. The CHO JRR17.1 line expresses gp160 (JRFL) and is a clone that has been selected for its ability to fuse with a CCR5/CD4 expressing cell line.\nUpon cell fusion, Tat present in the CHO cell is able to transactivate the HIV-1 long terminal repeat (LTR) present in the HeLa cell leading to the expression of the β-Galactosidase enzyme. This expression is then measured using a Fluor Ace™ β-Galactosidase reporter assay kit (Bio-Rad cat no. 170-3150). This kit is a quantitative fluorescent assay that determines the level of expression of β-galactosidase using 4-methylumbelliferul-galactopyranoside (MUG) as substrate. β-Galactosidase hydrolyses the fluorogenic substrate resulting in release of the fluorescent molecule 4-methylumbelliferone (4MU). Fluorescence of 4-methylumbelliferone is then measured on a fluorometer using an excitation wavelength of 360 nm and emission wavelength of 460 nm.\nCompounds that inhibit fusion will give rise to a reduced signal and, following solubilisation in an appropriate solvent and dilution in culture medium, a dose-response curve for each compound can be used to calculate IC50 values.", "values": [{"smiles": "CC(Oc1cccc2ccccc12)C(=O)N1CCN(C(=O)c2ccccc2)C[C@H]1C", "note": "(stereo partly drawn) [Example 29]", "pIC50": 6.87}, {"smiles": "Cc1n[nH]c2cccc(O[C@@H](C)C(=O)N3CCN(C(=O)c4ccccc4)C[C@H]3C)c12", "note": "[Example 12]", "pIC50": 7.82}, {"smiles": "CC(Oc1ccccc1C(N)=O)C(=O)N1CCN(C(=O)c2ccccc2)C[C@H]1C", "note": "(stereo partly drawn) [Example 44]", "pIC50": 6.08}]}]}
